Experimental data from patent US20230227466A1, “SUBSTITUTED THIENOPYRIMIDINES THAT INTERACT WITH THE RAS SUPERFAMILY FOR THE TREATMENT OF CANCERS, INFLAMMATORY DISEASES, RASOPATHIES, AND FIBROTIC DISEASE” (SHY Therapeutics, LLC, priority 2020, published 2023).
Like-named read-outs stand apart in the source and are kept apart here.

What was measured:
Rho-A = Rho-A (Homo sapiens, UniProt P61586); experiment: Ras GTP binding domain inhibition assay (labeled-GTP competition, cell-free); set-up: made in house; conditions: without SOS, read-out: Rho-A: % inh.
How it was run: (§1)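 Labeled-GTP competition read out as bound Cy3/Cy5-GTP fluorescence after washes, with 100 nM tracer for 45 min at RT. Before tracer, compounds at 20 μM, or a dilution series for IC50, sat 3 h at RT on the Ni-immobilized His-tagged GTPase. Sos GEF (10-30 μg/mL) was optionally present for the last hour.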

KRas wild type = KRas wild type (Homo sapiens, UniProt P01116); experiment: as above; set-up: made in house
How it was run: as §1

Rac-1 = Rac-1 (Homo sapiens, UniProt P63000); experiment: as above; set-up: made in house; conditions: without SOS, read-out: Rac-1: % inh.
How it was run: as §1

[1] = system: MIA-PaCa-2 pancreatic cancer cell line (KRAS G12C); experiment: Cell proliferation assay (CellTiter 96 Aqueous One); assay type: cell-based; conditions: Homo sapiens; for IC50: MIA PaCa-2, MIA PaCa-2; for inhibition at 10 µM: MIA PaCa-2, read-out: % inh cell proliferation (10 μM) in MIA PaCa-2
How it was run: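 After overnight attachment, compounds are added (10 μM final or serial dilutions) and left 2–4 days, with viability then measured by MTS.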

KRas G12D mutant = molecular target: T1, KRas G12D mutant (Homo sapiens, UniProt P01116, G12D); experiment: Ras GTP binding domain inhibition assay (labeled-GTP competition, cell-free)
T1 construct: made in house
How it was run: as §1

KRas G12C mutant = molecular target: T2, KRas G12C mutant (Homo sapiens, UniProt P01116, G12C); experiment: as above
T2 construct: made in house
How it was run: as §1

[2] = system: Akt phosphorylation in Panc-1 cells; experiment: Western AKT cell-based phosphorylation assay; set-up: species or system human; conditions: at 10 μM, values in brackets < > are activation %, not inhibition
How it was run: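 Panc-1 cells starved overnight in 0.5% FBS, exposed to compound at 10 μM (0.3% DMSO) for 6 h at 37° C, then stimulated with 1.5 ng/ml EGF for 15 min. Lysates probed by western blot with anti-phospho-Akt (Ser473), equal protein loading checked by Ponceau S.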

[3] = with SOS, read-out: KRas wild type + SOS: % inh.
[4] = without SOS, read-out: KRas wild type: % inh.
[5] = with SOS, read-out: KRas G12D mutant + SOS: % inh.
[6] = without SOS, read-out: KRas G12D mutant: % inh.
[7] = with SOS, read-out: KRas G12C mutant + SOS: % inh.
[8] = without SOS, read-out: KRas G12C mutant: % inh.

`CO[C@H]1CC[C@H](Nc2nc(-c3nccn3C)nc3sc(-c4ccn(C(C)C)n4)c(C)c23)CC1` [Compound 54] was tested. Which inhibition at 20 µM (Rho-A) did it give?
Its inhibition at 20 µM is 51 to 75%.

And the inhibition at 20 µM (KRas wild type; [3])?
Its inhibition at 20 µM is 76 to 100%.

What about the inhibition at 20 µM (KRas wild type; [4]) of the same compound?
Its inhibition at 20 µM is 76 to 100%.

And the inhibition at 20 µM (Rac-1)?
The inhibition at 20 µM was 26 to 50%.

And the IC50 [1]?
Its IC50 is under 1 µM.

And the inhibition at 10 µM [1]?
Its inhibition at 10 µM is 76 to 100%.

What about the inhibition at 20 µM (KRas G12D mutant; [5]) of the same compound?
The inhibition at 20 µM was 76 to 100%.

And the inhibition at 20 µM (KRas G12D mutant; [6])?
The inhibition at 20 µM was 51 to 75%.

What about the inhibition at 20 µM (KRas G12C mutant; [7]) of the same compound?
Its inhibition at 20 µM is 76 to 100%.

What about the inhibition at 20 µM (KRas G12C mutant; [8]) of the same compound?
The inhibition at 20 µM was 76 to 100%.

What about the “% inh of AKT phosphorylation in PANC-1” value [2] of the same compound?
Its value is “<A>”.

How did the inhibition at 20 µM (Rho-A) turn out when `CO[C@H]1CC[C@@H](Nc2nc(-c3nccn3C)nc3sc(-c4ccn(C(C)C)n4)c(C)c23)CC1` [Compound 55] was run?
The inhibition at 20 µM was 51 to 75%.

What about the inhibition at 20 µM (KRas wild type; [3]) of the same compound?
The inhibition at 20 µM was 1 to 25%.

And the inhibition at 20 µM (KRas wild type; [4])?
Its inhibition at 20 µM is 1 to 25%.

And the inhibition at 20 µM (Rac-1)?
The inhibition at 20 µM was 0%.

And the IC50 [1]?
Its IC50 is under 1 µM.

And the inhibition at 10 µM [1]?
The inhibition at 10 µM was 76 to 100%.

And the inhibition at 20 µM (KRas G12D mutant; [5])?
Its inhibition at 20 µM is 26 to 50%.

What about the inhibition at 20 µM (KRas G12D mutant; [6]) of the same compound?
The inhibition at 20 µM was 51 to 75%.

What about the inhibition at 20 µM (KRas G12C mutant; [7]) of the same compound?
Its inhibition at 20 µM is 26 to 50%.

What about the inhibition at 20 µM (KRas G12C mutant; [8]) of the same compound?
Its inhibition at 20 µM is 26 to 50%.

And the “% inh of AKT phosphorylation in PANC-1” value [2]?
Its value is “<A>”.

`Cc1c(-c2ccn(C(C)C)n2)sc2nc(-c3nccn3C)nc(NCc3ncc[nH]3)c12` [Compound 57, N-((1H-Imidazol-2-yl)methyl)-6-(1-isopropyl-1H-pyrazol-3-yl)-5-methyl-2-(1-methyl-1H-imidazol-2-yl)thieno[2,3-d]pyrimidin-4-amine] was tested. Which inhibition at 20 µM (Rho-A) did it give?
The inhibition at 20 µM was 51 to 75%.

What about the inhibition at 20 µM (KRas wild type; [3]) of the same compound?
Its inhibition at 20 µM is 26 to 50%.

And the inhibition at 20 µM (KRas wild type; [4])?
The inhibition at 20 µM was 26 to 50%.

And the inhibition at 20 µM (Rac-1)?
Its inhibition at 20 µM is 0%.

And the IC50 [1]?
Its IC50 is 5 to 10 µM.

And the inhibition at 10 µM [1]?
The inhibition at 10 µM was 51 to 75%.

And the inhibition at 20 µM (KRas G12D mutant; [5])?
Its inhibition at 20 µM is 26 to 50%.

What about the inhibition at 20 µM (KRas G12D mutant; [6]) of the same compound?
Its inhibition at 20 µM is 1 to 25%.

What about the inhibition at 20 µM (KRas G12C mutant; [7]) of the same compound?
The inhibition at 20 µM was 26 to 50%.

What about the inhibition at 20 µM (KRas G12C mutant; [8]) of the same compound?
The inhibition at 20 µM was 26 to 50%.

What about the “% inh of AKT phosphorylation in PANC-1” value [2] of the same compound?
Its value is 0 (0% inhibition).

Which inhibition at 20 µM (Rho-A) does the source give for `Cc1c(-c2ccn(C(C)C)n2)sc2nc(-c3nccn3C)nc(NCCc3cn(C)cn3)c12` [Compound 58, 6-(1-Isopropyl-1H-pyrazol-3-yl)-5-methyl-2-(1-methyl-1H-imidazol-2-yl)-N-(2-(1-methyl-1H-imidazol-4-yl)ethyl)thieno[2,3-d]pyrimidin-4-amine] here?
The inhibition at 20 µM was 76 to 100%.

What about the inhibition at 20 µM (KRas wild type; [3]) of the same compound?
Its inhibition at 20 µM is 76 to 100%.

And the inhibition at 20 µM (KRas wild type; [4])?
The inhibition at 20 µM was 76 to 100%.

What about the inhibition at 20 µM (Rac-1) of the same compound?
The inhibition at 20 µM was 26 to 50%.

What about the IC50 [1] of the same compound?
Its IC50 is 5 to 10 µM.

What about the inhibition at 10 µM [1] of the same compound?
The inhibition at 10 µM was 76 to 100%.

And the inhibition at 20 µM (KRas G12D mutant; [5])?
The inhibition at 20 µM was 51 to 75%.

And the inhibition at 20 µM (KRas G12D mutant; [6])?
Its inhibition at 20 µM is 26 to 50%.

What about the inhibition at 20 µM (KRas G12C mutant; [7]) of the same compound?
Its inhibition at 20 µM is 76 to 100%.

What about the inhibition at 20 µM (KRas G12C mutant; [8]) of the same compound?
The inhibition at 20 µM was 76 to 100%.

And the “% inh of AKT phosphorylation in PANC-1” value [2]?
The value was 0 (0% inhibition).

For `COc1cccc(Nc2nc(-c3nccn3C)nc3sc(-c4ccn(C(C)C)n4)c(C)c23)n1.Cl` [Compound 65, 6-(1-Isopropyl-1H-pyrazol-3-yl)-N-(6-methoxypyridin-2-yl)-5-methyl-2-(1-methyl-1H-imidazol-2-yl)thieno[2,3-d]pyrimidin-4-amine hydrochloride salt], which inhibition at 20 µM (Rho-A) is on record?
Its inhibition at 20 µM is 51 to 75%.

What about the inhibition at 20 µM (KRas wild type; [3]) of the same compound?
The inhibition at 20 µM was 51 to 75%.

What about the inhibition at 20 µM (KRas wild type; [4]) of the same compound?
Its inhibition at 20 µM is 26 to 50%.

What about the inhibition at 20 µM (Rac-1) of the same compound?
Its inhibition at 20 µM is 26 to 50%.

And the IC50 [1]?
Its IC50 is 5 to 10 µM.

What about the inhibition at 10 µM [1] of the same compound?
The inhibition at 10 µM was 76 to 100%.

What about the inhibition at 20 µM (KRas G12D mutant; [5]) of the same compound?
Its inhibition at 20 µM is 51 to 75%.

What about the inhibition at 20 µM (KRas G12D mutant; [6]) of the same compound?
Its inhibition at 20 µM is 26 to 50%.

What about the inhibition at 20 µM (KRas G12C mutant; [7]) of the same compound?
The inhibition at 20 µM was 76 to 100%.

And the inhibition at 20 µM (KRas G12C mutant; [8])?
Its inhibition at 20 µM is 26 to 50%.

What about the “% inh of AKT phosphorylation in PANC-1” value [2] of the same compound?
The value was “B (26-50% inhibition)”.

Which results are given for `COc1cc(Nc2nc(-c3nccn3C)nc3sc(-c4ccn(C(C)C)n4)c(C)c23)ncn1` [Compound 66, 6-(1-Isopropyl-1H-pyrazol-3-yl)-N-(6-methoxypyrimidin-4-yl)-5-methyl-2-(1-methyl-1H-imidazol-2-yl)thieno[2,3-d]pyrimidin-4-amine]?
inhibition at 20 µM (Rho-A): 76 to 100%; inhibition at 20 µM (KRas wild type; [3]): 51 to 75%; inhibition at 20 µM (KRas wild type; [4]): 51 to 75%; inhibition at 20 µM (Rac-1): 51 to 75%; IC50 [1]: < 1 µM; inhibition at 10 µM [1]: 76 to 100%; inhibition at 20 µM (KRas G12D mutant; [5]): 51 to 75%; inhibition at 20 µM (KRas G12D mutant; [6]): 76 to 100%; inhibition at 20 µM (KRas G12C mutant; [7]): 26 to 50%; inhibition at 20 µM (KRas G12C mutant; [8]): 26 to 50%; % inh of AKT phosphorylation in PANC-1 [2]: B (26-50% inhibition)

Which inhibition at 20 µM (Rho-A) does the source give for `COc1cc(Nc2nc(-c3nccn3C)nc3sc(-c4ccn(C(C)C)n4)c(C)c23)ccn1` [Compound 67, 6-(1-Isopropyl-1H-pyrazol-3-yl)-N-(2-methoxypyridin-4-yl)-5-methyl-2-(1-methyl-1H-imidazol-2-yl)thieno[2,3-d]pyrimidin-4-amine] here?
The inhibition at 20 µM was 26 to 50%.

What about the inhibition at 20 µM (KRas wild type; [3]) of the same compound?
Its inhibition at 20 µM is 51 to 75%.

What about the inhibition at 20 µM (KRas wild type; [4]) of the same compound?
The inhibition at 20 µM was 26 to 50%.

And the inhibition at 20 µM (Rac-1)?
Its inhibition at 20 µM is 1 to 25%.

And the IC50 [1]?
The IC50 was 5 to 10 µM.

What about the inhibition at 10 µM [1] of the same compound?
The inhibition at 10 µM was 76 to 100%.

What about the inhibition at 20 µM (KRas G12D mutant; [5]) of the same compound?
Its inhibition at 20 µM is 51 to 75%.

And the inhibition at 20 µM (KRas G12D mutant; [6])?
The inhibition at 20 µM was 0%.

What about the inhibition at 20 µM (KRas G12C mutant; [7]) of the same compound?
Its inhibition at 20 µM is 51 to 75%.

What about the inhibition at 20 µM (KRas G12C mutant; [8]) of the same compound?
The inhibition at 20 µM was 26 to 50%.

What about the “% inh of AKT phosphorylation in PANC-1” value [2] of the same compound?
The value was “<A>”.
